The values that follow come from patent US20230049350A1, “COMPOUNDS FOR TREATING BRAIN CANCER” (Purdue Pharmaceutical Products L.P., priority 2014, published 2023).

Assay [1] relates to U251-luciferase. Nature of the assay: Orthotopic model of U251-luciferase transfected cells. It counts as in vivo, mice. The conditions noted are these: for mice with tumours of some grade (percent): control 72.7%. As to the method: Mice isotopically transfected with U251-luciferase in accordance with the procedure of Example 3 were treated with radiotherapy (2 Gy for 5 consecutive days), temozolomide (16 mg/kg for 5 consecutive days, po), radiotherapy and temozolomide (2 Gy for 5 consecutive days and 16 mg/kg for 5 consecutive days, po), EDO-S101 (60 mg/kg, intravenously at days 1, 8 and 15 of the treatment cycle) or control vehicle.
Intracranial tumour growth was monitored with the […] imaging system (Caliper Life Sciences, Hopkinton, MA, USA). Mice were anesthetized with 2% to 4% isofluorane (Baxter, Deerfield, IL, USA) followed by intraperitoneal injections of 150 mg/kg d-luciferin (In Vivo Imaging Solutions). Five animals were measured at the same time and the luminescent camera was set to 1 minute exposure, medium binning, 1 f/stop, blocked excitation filter, and open emission filter. The photographic camera was set to 2 s exposure, medium binning, and 8 f/stop. The field of view was set to 22 cm to capture five mice at once. Serial images were taken on a weekly basis using identical settings. Bioluminescence intensity was quantified using the Living Image software (Caliper Life Sciences).
Before any irradiation mice were anesthetized with a mixture of ketamine (25 mg/ml)/xylazine (5 mg/ml). Anesthetized tumour-bearing mice received a focal irradiation at the dose of 2 Gy for 5 consecutive days. Irradiation was delivered using an X-ray linear accelerator at a dose rate of 200 cGy/min at room temperature. All mice were shielded with a specially designed lead apparatus to allow irradiation to the […]. Mice were kept under these conditions until all irradiation finished.
All images were obtained in the transverse plane using the following sequences: transverse T2-weighted turbo spin-echo (TSE) sequence (repetition time [TR] msec/echo time [TE] msec) 6766/120, number of signal acquired 4, matrix of 192 × 192) applied with a section thickness of […], an intersection gap of 0.0 mm, and a flip angle of 160 °. The field of view was 36 × 60 mm^2, which included the tumour in its entirety with a resultant voxel size of 0.3 × 0.3 × 1.0 mm^3.
Continuous variables were summarized as mean and standard deviation (SD) or as median and 95% Cl for the median. For continuous variables not normally distributed, statistical comparisons between control and treated groups were established by carrying out the Kruskal-Wallis Tests. For continuous variables normally distributed, statistical comparisons between control and treated groups were established by carrying out the ANOVA test or by Student t test for unpaired data (for two comparisons).

Assay [2] has as its system twelve tested GBM cell lines. As to the kind of experiment: GBM cell line viability, panel of twelve tested cell lines. It counts as cell-based. The conditions noted are these: in combination with 500 nM vorinostat. The protocol:
In vitro experiments were devised in which a series of GBM cell lines representative for MGMT negative and MGMT positive tumour cells were used.
Compounds: 1-100 µM EDO-S101, 1-50 µM temozolomide (TMZ), 1-50 µM temozolomide + 500 nM vorinostat, 1-40 µM bendamustine, 1-40 µM bendamustine and 500 nM vorinostat.
Twelve glioblastoma cell lines representing grade III and IV gliomas and with different expression of MGMT, drug and radiotherapy sensitivity and five patient derived glioblastoma stem, cells were used (see above). […] Spheres were counted 5 days after treatment under an inverted microscope at ×4 magnification. A sphere was counted if it had at least 15 cells.
Cells were seeded at a density of 2 × 10^4 cells/ml in 24 well plates. […] Cells trypsinized and resuspended in 1.0 ml of saline were counted using the NucleoCounterTM NC-100 (automated cell counter systems, Chemotec, Cydevang, DK) in order to evaluate cell viability. […] IC50 values were calculated by the GraFit method (Erithacus Software Limited, Staines, UK). Cell viability was measured with the 3-(4,5 dimethylthiazol-2-yl)-2,5-diphenyl tetrazolium bromide (MTT; Sigma-Aldrich) assay.
IC50 and IC20 values for all twelve cell lines against bendamustine and vorinostat were also determined as described above. […]

Where [3] appears, read: drug alone, 50 days after beginning of treatment.

With `Cn1c(CCCCCCC(=O)NO)nc2cc(N(CCCl)CCCl)ccc21` [EDO-S101], the “survival probability versus radiotherapy or temozolomide” value in assay [1] (drug alone, 60 mg/kg iv days 1, 8, 15, FIG. 17) is “significantly greater”. For the same compound, in assay [1] (setting [3]), the “mice displaying a large lesion (number)” value was 1 of the 13 and the “mice with tumours of some grade (percent)” value was determined as 38.5%. Moreover, the “mice with tumours of some grade (number)” value in assay [1] (drug alone, 50 days after beginning of treatment, control 8 out of 11) is given as 5 out of 13.
In the case of `Cn1c(CCCC(=O)O)nc2cc(N(CCCl)CCCl)ccc21` [bendamustine], the “sensitivity of all cell lines (FIG. 5)” value in assay [2] was “highly sensitive except Mz54 and T98G”.
Consider `Cn1nnc2c(C(N)=O)ncn2c1=O` [temozolomide], for which the “mice with tumours of some grade (percent)” value in assay [1] (setting [3]) came out at 38.5%. Further, in assay [1] (with radiotherapy 2 Gy x 5 days, temozolomide 16 mg/kg po x 5 days), the “mice displaying lesions at the end of the study (percent)” value is reported as 18.2%.
